Consider three compounds from publication PMC9692247 (Pharmaceuticals, 2022).

Structures are written as SMILES.

For one series, the target named is HDAC6 (Homo sapiens, UniProt Q9UBN7). Description: Intracellular target engagement residence time assay (NanoBRET) in HeLa cells. It is filed as cell-based. To be noted: HeLa cells transiently expressing HDAC6-NanoLuc full-length fusion protein. (In BRET a luciferase serves as donor, and the signal depends on an acceptor being close.)
The target in series [1] is T1, recombinant zfHDAC6 (HDAC6 CD2) (Danio rerio, UniProt F8W4B7).
T1 construct: HDAC6 from Danio rerio (zebrafish; catalytic domain 2, S440-R798); His-SUMO (N, cleaved yes); made in house; host or cells: E. coli BL21 (DE3) RILP
T1 sequence (F8W4B7 440-798): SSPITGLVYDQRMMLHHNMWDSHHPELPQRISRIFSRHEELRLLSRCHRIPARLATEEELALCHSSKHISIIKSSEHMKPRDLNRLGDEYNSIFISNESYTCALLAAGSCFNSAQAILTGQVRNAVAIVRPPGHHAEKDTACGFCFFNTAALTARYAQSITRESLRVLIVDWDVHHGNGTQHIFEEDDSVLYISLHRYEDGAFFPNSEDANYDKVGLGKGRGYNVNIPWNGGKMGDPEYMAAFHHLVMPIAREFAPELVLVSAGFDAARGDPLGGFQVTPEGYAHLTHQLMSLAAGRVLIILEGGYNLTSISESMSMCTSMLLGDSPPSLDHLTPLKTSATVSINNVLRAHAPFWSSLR
Description: Fluorescence polarization (FP) competition assay with FITC-M344. It is filed as binding, Danio rerio (zebrafish). The conditions noted are these: for IC50: 300 nM HDAC6 CD2, 50 nM FITC-M344, read-out: Fluorescence polarization IC50 against zfHDAC6. The method, then:
The FP assay was conducted in a Greiner Bio-one black 384-well, nonbinding microplate (Cat 781900) as previous described. These studies were performed in FP buffer (20 mM HEPES pH 8.0, 137 mM NaCl, 3 mM KCl, 1 mM TCEP, 5% DMSO). Binding experiments were performed in the presence of 50 nM FITC-M344 synthesized as described by Mazitschek et al. and titrated with 0–3 µM HDAC6. Competition assays were performed by titrating 0–100 µM inhibitor to 300 nM HDAC6 CD2 and preincubating the samples for 10 min prior to addition of 50 nM FITC-M344 in FP buffer. The assay mixture was incubated for an additional 10 min before FP measurement. Polarization measurements were collected using Infinite M1000-Tecan (ex/em = 470 nm/530 nm) and data were plotted and fitted using Prism GraphPad 6 built-in function, log(inhibitor) vs. response—variable slope (four parameters).
A general note: Polarisation of emitted light reports the rotation of a fluorescent probe.

Series [2] is described as follows: Plasma stability evaluation. It is filed as in vitro ADME. The conditions noted are these: read-out: T1/2 in plasma.
The nature of series [3]: In vivo PK study in CD-1 male mice (plasma). The arrangement: species or system CD-1 mice. The method, then: (§1) In vivo mouse studies were performed at Pharmaron in CD-1 male mice in triplicate. The test compounds were formulated within a 4 mg/mL solution (10% DMA, 65% PEG400, 25% saline). CD-1 mice were administered the test compound (50 mg/kg, I.P) once, and blood samples were obtained from each mouse at 0.25, 0.5, 1, 2, 4, 8, and 24 h post-dose. The mice had free access to food and water, were inspected for clinical signs and were weighted once prior to dosing. The working solutions of 5 μL at different concentrations (2, 4, 10, 20, 100, 200, 1000, 2000 ng/mL) were added to CD-1 mouse plasma (10 μL) to generate calibration standards of 1, 2, 5, 10, 50, 100, 500, and 1000 ng/mL. Four quality control (QC) samples at 2, 5, 50, and 800 ng/mL for plasma were prepared independently of calibration curves. Standards, QC samples, and unknown samples (total volume 15 µL) were added to acetonitrile (200 μL) containing IS (2 ng/mL Verapamil, and 50 ng/mL Dexamethasone) for precipitation of protein. Samples were vortexed and centrifuged (4 °C, 3900 rpm, 15 min), and the supernatant was diluted 3× with ultra-pure water. Diluted supernatant was injected into the LC-MS/MS system for quantitative analysis.

Series [4] is described as follows: In vivo brain PK analysis in male CD-1 mice. To be noted: IP, 50 mg/kg, n = 3. As to the method: as §1
Series [5] deals with DERL-2 cells. Kind of series: Cytotoxicity assay (Cell Titer-Blue, 72 h). It is filed as cell-based. To be noted: Homo sapiens, one representative of three experiments. As to the method:
(§2) KHYG-1, SNK6, MTA, YT, DERL-2, DERL-7, Mac2a, SU-DHL-1, Myla, Hut78, SeAx, HH, MOTN-1, KOPT-K1, Jurkat, and Loucy cells were plated in 96-well flat-bottom sterile culture plates with low-evaporation lids (Costar #3997). The inhibitors and a vehicle control (0.5% DMSO) were added to the cells following 24 h. After 72 h, Cell Titer-Blue® (Promega #G808A) was added to each well (20 μL), and the fluorescence was measured at 560/590 nm using a Cytation S63 spectrophotometer (BioTek) or on the GloMax® Discover Microplate Reader (Promega, Madison, WI, USA). IC50 values were determined using non-linear regression analysis with GraphPad Prism 6.0 (GraphPad Software Inc., San Diego, CA, USA).
A general note: The colour change of resazurin is a common sign of viable cells or microbes.

A further series relates to DERL-7 cells. Description: Cytotoxicity assay (Cell Titer-Blue, 72 h). It is filed as cell-based. The conditions noted are these: Homo sapiens, DERL7, one representative of three experiments. As to the method:
as §2

For another series, the system named is HH cells. Description: Cytotoxicity assay (Cell Titer-Blue, 72 h). The series is classed as cell-based. To be noted: Homo sapiens, one representative of three experiments. The method, then:
as §2

A further series deals with Hut78 cells. Description: Cytotoxicity assay (Cell Titer-Blue, 72 h). The conditions noted are these: Homo sapiens, one representative of three experiments. It is filed as cell-based. As to the method: as §2
For a further series, the system named is Jurkat cells. Description: Cytotoxicity assay (Cell Titer-Blue, 72 h). The conditions noted are these: Homo sapiens, one representative of three experiments. It is filed as cell-based. The method, then:
as §2

For a further series, the system named is KHYG-1 cells. Kind of series: Cytotoxicity assay (Cell Titer-Blue, 72 h). The series is classed as cell-based. To be noted: Homo sapiens, one representative of three experiments, ANKL to T-ALL panel. The method, then: as §2
Another series deals with KOPT-K1 cells. Kind of series: Cytotoxicity assay (Cell Titer-Blue, 72 h). The series is classed as cell-based. The conditions noted are these: Homo sapiens, KOPTK1, one representative of three experiments. The method, then:
as §2

For a further series, the system named is Loucy cells. Kind of series: Cytotoxicity assay (Cell Titer-Blue, 72 h). It is filed as cell-based. The conditions noted are these: Homo sapiens, one representative of three experiments. The method, then:
as §2

For another series, the system named is MOTN-1 cells. Description: Cytotoxicity assay (Cell Titer-Blue, 72 h). The conditions noted are these: Homo sapiens, one representative of three experiments. It is filed as cell-based. The method, then: as §2
A further series relates to MTA cells. Description: Cytotoxicity assay (Cell Titer-Blue, 72 h). It is filed as cell-based. To be noted: Homo sapiens, one representative of three experiments. As to the method:
as §2

For another series, the system named is Mac2a cells. Description: Cytotoxicity assay (Cell Titer-Blue, 72 h). It is filed as cell-based. The conditions noted are these: Homo sapiens, one representative of three experiments. The method, then:
as §2

Another series has as its system Myla cells. Description: Cytotoxicity assay (Cell Titer-Blue, 72 h). The series is classed as cell-based. To be noted: Homo sapiens, one representative of three experiments. The method, then:
as §2

Another series deals with SNK6 cells. Description: Cytotoxicity assay (Cell Titer-Blue, 72 h). The series is classed as cell-based. To be noted: Homo sapiens, one representative of three experiments. The method, then:
as §2

The subject of a further series is SU-DHL-1 cells. Description: Cytotoxicity assay (Cell Titer-Blue, 72 h). The series is classed as cell-based. To be noted: Homo sapiens, one representative of three experiments. As to the method:
as §2

The next series concerns SeAx cells. Kind of series: Cytotoxicity assay (Cell Titer-Blue, 72 h). It is filed as cell-based. The conditions noted are these: Homo sapiens, one representative of three experiments. As to the method: as §2
A further series concerns YT cells. Description: Cytotoxicity assay (Cell Titer-Blue, 72 h). It is filed as cell-based. The conditions noted are these: Homo sapiens, one representative of three experiments. As to the method:
as §2

Series [6] deals with acetylation of α-tubulin and histone H3 in acute myeloid leukemia (MV4-11) cells. Kind of series: In cellulo target engagement by Western blotting. The series is classed as cell-based. The conditions noted are these: 6 h treatment, Western blot. The method, then:
(§3) Cells (MV4-11 AML, MM.1S multiple myeloma, or YT cells) were incubated with inhibitors prior to washes (2×) with cold phosphate-buffered saline (PBS) and cell lysis with radioimmunoprecipitation assay (RIPA) buffer (20 mM Tris pH 7.4, 150 mM NaCl, 0.5% deoxycholate, 1% Triton X-100, and 0.1% sodium dodecyl sulfate (SDS)). Total protein content was determined through a bicinchoninic acid (BCA) assay (ThermoFisher Scientific, Waltham, MA, USA). The cell lysate proteins were separated via a 4–20% polyacrylamide SDS gel and transferred to a PVDF membrane (Bio-Rad, Hercules, CA, USA). Non-specific binding of the antibody to the membrane was reduced by blocking the membranes with a 5% (w/v) solution of Bovine Serum Albumin powder in TBS-T. This was followed by incubation at 4 °C (overnight) with the following antibodies: acetylated α-tubulin mouse monoclonal (sc-23950, Santa Cruz, Santa Cruz, CA, USA), acetylated Histone H3 (Ac-Lys18, 07-354, Sigma), β-Actin mouse monoclonal (AC-15, sc-69879, Santa Cruz), and […] HSC70 (sc-7298, Santa Cruz). Following overnight incubation, horseradish peroxidase (HRP)-conjugated goat anti-mouse IgG secondary antibody (7076, Cell Signaling) or HRP-linked anti-rabbit IgG secondary antibody (7074, Cell Signaling) was applied to the membrane in a 1:5000 dilution for 1 h. The bands were visualized using clarity Western ECL substrate luminal/enhancer solution and peroxide solution. Western blotting analysis was carried out using Image lab software (Bio-Rad).

The test system of series [7] is acetylation of α-tubulin and histone H3 in multiple myeloma (MM.1S) cells. Description: In cellulo target engagement by Western blotting. The series is classed as cell-based. The conditions noted are these: 6 h treatment, Western blot. The method, then: as §3
In series [8] the test system is DERL-2 cells. Kind of series: FACS apoptosis detection assay (annexin V/PI). The series is classed as cell-based, human. The conditions noted are these: DERL-2, 18 h treatment. As to the method: DERL-2 cells were seeded, dosed with inhibitors, incubated for 18 h, and washed with ice cold 1× PBS. The resulting cell pellets were resuspended in 1× Binding Buffer (1 × 10^6 cell/mL) from the FITC Annexin V Apoptosis Detection Kit I (BD Pharmingen). Subsequently, the dyes Annexin V (5 μL) and Propidium Iodide (PI, 5 μL) were added to 2.5 × 10^5 cells (250 μL). The suspension was thoroughly mixed and incubated in the dark for 15 min. Following the addition of 250 μL of 1× binding buffer the cells were analyzed by flow cytometry within 1 h using Cytoflex S (Beckman Coulter, Brea, CA, USA).

Where [9] appears, read: mouse, plasma, male CD-1 mice, IP, 50 mg/kg, n = 3.

Consider `CC(C)N(Cc1ccc(C(=O)NO)cc1)S(=O)(=O)c1cc(F)c(F)c(F)c1F` [NN-390], for which the “Intracellular residence time in HDAC6” value on HDAC6 is on record as 97 min.
The term IC50 denotes the concentration that inhibits the measured activity by half. For the compound `O=C(CCCCCCNC(=O)c1cnc(N(c2ccccc2)c2ccccc2Cl)nc1)NO` [Citarinostat, citarinostat], in [1], the IC50 was 0.0902 µM. For the same compound, in series [1] (FP IC50 vs NN-429), the “Binding affinity lower than NN-429 (FP)” value worked out at 3 fold.
What is called AUC(0-inf) is total exposure, with the tail of the curve extrapolated. For orientation: AUC(0-t) means the area under the concentration-time curve up to a stated or last time point. Broadly, the Cmax is the highest concentration seen after dosing. For `CC(C)N(Cc1ccc(C(=O)NO)cc1F)S(=O)(=O)c1cc(F)c(F)c(F)c1F` [NN-429], the IC50 amounted to 0.0288 µM in series [1]; 2.32 µM in the series on DERL-2 cells [5]; 2.21 µM in the series on DERL-7 cells; 2.95 µM in the series on HH cells; 16.7 µM in the series on Hut78 cells; 5.46 µM with Jurkat cells. Moreover, the concentration for half-maximal inhibition (IC50) with KHYG-1 cells is 7.25 µM; with KOPT-K1 cells, 6.16 µM; with Loucy cells, 3.6 µM; with MOTN-1 cells, 2.75 µM; in the series with MTA cells, 0.72 µM; with Mac2a cells, 15.1 µM. The IC50 in the series on Myla cells was > 50 µM; in the series with SNK6 cells, 12 µM; in the series on SU-DHL-1 cells it was 4.72 µM; with SeAx cells, 12.4 µM; with YT cells, 1.29 µM. For the same compound, the half-life in [2] was 1.55 h; in series [3] (setting [9]) it was 3.53 h. Moreover, in series [3] (CD-1 mice, KT-531 at a lower dose), the “in vivo t1/2 longer than that of KT-531” value is listed as > 3.5 fold. In [3] (CD-1 mice, NN-390 at a lower dose), the “in vivo t1/2 longer than that of NN-390” value was ~ 1.8 fold. For the same compound, the area under the curve AUC(0-inf) in series [3] (setting [9]) was 9920 ng·h/mL. The compound also returned an area under the curve AUC(0-t) in [3] (setting [9]) of 9860 ng·h/mL. This compound also yielded a peak concentration (Cmax) in series [3] (setting [9]) of 3190 ng/mL. Further, the “Levels in the brain” value in [4] is on record as “no observable levels”. Further, in series [6], the “Target engagement (α-tubulin vs histone H3 acetylation)” value is reported as “strong target engagement with minimal acetylation of off-target histone H3”. Also, the “Concentration with visible off-target interaction (histone H3 acetylation)” value in series [7] is reported as 5 µM. The “Lowest concentration with dose-dependent increase in acetylation of α-tubulin” value in [7] came out at 0.1 µM. For the same compound, the “Cells undergoing early-stage apoptosis (annexin V+/PI−)” value is given as 15% with DERL-2 cells [8] (0.1 μM) and 56% with DERL-2 cells [8] (5 μM).
